Test results reported in patent US20080009418A1, “Selective Inhibitors” (Alchemia LTD., priority 2004, published 2008).

Legend:
Human Melanocortin (MC4) = target: T1, Human Melanocortin (MC4) (Homo sapiens, UniProt P32245); assay: Radioligand binding, human melanocortin MC4 membranes, FlashPlate, [125I]-NDP-αMSH; conditions: compound at 10 μM, [125I]-NDP-αMSH
T1 construct: purchased Perkin Elmer Biosignal
Summary of the method: (§1)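 Cloned human receptor membranes were coated onto FlashPlate wells and incubated with radioligand and compound (added from a 0.5 mM DMSO daughter plate) for 1 hour at room temperature in the dark. Scintillation counting gave percent inhibition, with DMSO defining total and reference ligand defining non-specific binding.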

Human opioid (ORL1) = target: T2, Human opioid (ORL1) (Homo sapiens, UniProt P41146); assay: Radioligand binding, human opioid ORL1 membranes, FlashPlate, [125I]-Nociceptin; conditions: compound at 10 μM, [125I]-Nociceptin
T2 construct: purchased Perkin Elmer Biosignal
Summary of the method: as §1

Human μ-opioid (MOP) = target: T3, Human μ-opioid (MOP) (Homo sapiens, UniProt P35372); assay: Radioligand binding, human μ-opioid (MOP) membranes, FlashPlate, [3H]-Naloxone; conditions: compound at 10 μM, [3H]-Naloxone
T3 construct: purchased Perkin Elmer Biosignal
Summary of the method: as §1

Human δ-opioid (DOP) = target: T4, Human δ-opioid (DOP) (Homo sapiens, UniProt P41143); assay: Radioligand binding, human δ-opioid (DOP) membranes, FlashPlate, [3H]-Bremazocine; conditions: compound at 10 μM, [3H]-Bremazocine
T4 construct: purchased Perkin Elmer Biosignal
Summary of the method: as §1

Human Melanocortin (MC3) = target: T5, Human Melanocortin (MC3) (Homo sapiens, UniProt P41968); assay: Radioligand binding, human melanocortin MC3 membranes, FlashPlate, [125I]-NDP-αMSH; conditions: compound at 10 μM, [125I]-NDP-αMSH
T5 construct: purchased Perkin Elmer Biosignal
Summary of the method: as §1

Human κ-Opioid (KOP) = target: T6, Human κ-Opioid (KOP) (Homo sapiens, UniProt P41145); assay: Radioligand binding, human κ-opioid (KOP) membranes, filtration, [3H]-Diprenorphine; conditions: compound at 10 μM, [3H]-Diprenorphine
T6 construct: purchased Perkin Elmer Biosignal
Summary of the method: (§2)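 Membranes from cloned human receptors were incubated with compound and radioligand for 1 hour at room temperature. Bound ligand was collected on 0.3% PEI-soaked filters, washed with cold 50 mM Tris-HCl pH 7.4, and counted by scintillation. Percent inhibition was computed against DMSO totals and reference-ligand nonspecific wells.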

Mouse urotensin (mUR2) = target: T7, Mouse urotensin (mUR2) (Mus musculus, UniProt Q8VIH9); assay: Radioligand binding, mouse urotensin mUR2 membranes, FlashPlate, [125I]-Urotensin II; conditions: compound at 10 μM, [125I]-Urotensin II
T7 construct: purchased Perkin Elmer Biosignal
T7 sequence (Q8VIH9 1-385): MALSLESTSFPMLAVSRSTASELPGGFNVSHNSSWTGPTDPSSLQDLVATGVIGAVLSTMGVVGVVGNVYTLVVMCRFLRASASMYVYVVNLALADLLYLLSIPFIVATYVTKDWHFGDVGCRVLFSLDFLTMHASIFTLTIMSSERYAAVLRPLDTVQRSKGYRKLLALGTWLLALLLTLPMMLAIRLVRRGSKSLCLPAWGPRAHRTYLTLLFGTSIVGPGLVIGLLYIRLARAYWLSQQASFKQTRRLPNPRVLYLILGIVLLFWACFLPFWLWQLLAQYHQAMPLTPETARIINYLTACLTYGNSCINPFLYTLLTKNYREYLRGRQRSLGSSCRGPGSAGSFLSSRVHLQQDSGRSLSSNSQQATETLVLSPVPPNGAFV
Summary of the method: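 Cloned mouse urotensin (mUR2) receptor membranes from Perkin Elmer Biosignal were immobilized in FlashPlate microplates using a proprietary coating. Each well got 19.5 μl buffer, then 0.5 μl of DMSO, reference ligand, or compound. Adding 5 μl of [125I]-Urotensin II, diluted to 5× final concentration in binding buffer, started binding. Plates were sealed with TopSeal-A and incubated 1 hour at room temperature in the dark. Wells were counted for 30 seconds each on a TopCount after a 60-second delay, and percentage inhibition was calculated.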

Human neurokinin (NK1) = target: T8, Human neurokinin (NK1) (Homo sapiens, UniProt P25103); assay: Radioligand binding, human neurokinin NK1 membranes, filtration, [125I]-Substance P; conditions: compound at 10 μM, [125I]-Substance P
T8 construct: purchased Perkin Elmer Biosignal
Summary of the method: as §2

Human melanocortin (MC5) = target: T9, Human melanocortin (MC5) (Homo sapiens, UniProt P33032); assay: Radioligand binding, human melanocortin MC5 membranes, FlashPlate, [125I]-NDP-αMSH; conditions: compound at 10 μM, [125I]-NDP-αMSH
T9 construct: purchased Perkin Elmer Biosignal
Summary of the method: as §1

[1] = target: T10, Human melanin-concentrating hormone (MCH1) (Homo sapiens, UniProt Q99705); assay: Radioligand binding, human melanin-concentrating hormone MCH1 membranes, FlashPlate, [125I]-S36057; conditions: compound at 10 μM
T10 construct: purchased Perkin Elmer Biosignal
Summary of the method: as §1

[2] = target: T11, Human neuropeptide Y (NPY-Y1) (Homo sapiens, UniProt P25929); assay: Radioligand binding, human neuropeptide Y NPY-Y1 membranes, FlashPlate, [125I]-PYY; conditions: compound at 10 μM, [125I]-PYY
T11 construct: purchased Perkin Elmer Biosignal
T11 sequence (P25929 1-384): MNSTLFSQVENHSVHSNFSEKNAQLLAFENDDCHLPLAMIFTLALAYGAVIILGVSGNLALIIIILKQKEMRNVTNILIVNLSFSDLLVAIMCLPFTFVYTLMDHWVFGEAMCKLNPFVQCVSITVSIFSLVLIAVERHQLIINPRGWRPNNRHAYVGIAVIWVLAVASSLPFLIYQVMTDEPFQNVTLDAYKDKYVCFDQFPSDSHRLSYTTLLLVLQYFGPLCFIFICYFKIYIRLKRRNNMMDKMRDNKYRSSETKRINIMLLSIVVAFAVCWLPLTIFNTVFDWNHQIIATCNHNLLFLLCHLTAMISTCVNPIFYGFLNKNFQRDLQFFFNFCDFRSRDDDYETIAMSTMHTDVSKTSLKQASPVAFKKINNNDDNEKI
Summary of the method: as §1

T2 sequence (P41146 whole entry): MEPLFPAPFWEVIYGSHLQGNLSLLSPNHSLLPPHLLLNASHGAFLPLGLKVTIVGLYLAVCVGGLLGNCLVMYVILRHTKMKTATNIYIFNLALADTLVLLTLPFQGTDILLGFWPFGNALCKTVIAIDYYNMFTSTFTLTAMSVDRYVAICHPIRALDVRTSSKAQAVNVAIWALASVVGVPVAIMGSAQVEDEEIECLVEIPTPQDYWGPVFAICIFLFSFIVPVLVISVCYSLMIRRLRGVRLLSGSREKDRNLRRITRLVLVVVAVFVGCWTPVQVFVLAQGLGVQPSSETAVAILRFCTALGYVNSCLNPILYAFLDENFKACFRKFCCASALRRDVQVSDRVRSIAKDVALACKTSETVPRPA
T4 sequence (P41143 whole entry): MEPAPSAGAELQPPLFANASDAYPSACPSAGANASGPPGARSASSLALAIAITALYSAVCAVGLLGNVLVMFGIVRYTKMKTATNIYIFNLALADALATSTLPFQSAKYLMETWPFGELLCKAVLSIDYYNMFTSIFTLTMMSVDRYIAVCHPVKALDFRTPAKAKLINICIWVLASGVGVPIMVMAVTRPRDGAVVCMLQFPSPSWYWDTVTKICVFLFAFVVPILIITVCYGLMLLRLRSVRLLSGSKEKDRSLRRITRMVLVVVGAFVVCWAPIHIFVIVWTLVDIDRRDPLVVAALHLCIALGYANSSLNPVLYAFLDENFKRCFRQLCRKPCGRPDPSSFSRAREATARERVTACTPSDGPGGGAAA
T5 sequence (P41968 whole entry): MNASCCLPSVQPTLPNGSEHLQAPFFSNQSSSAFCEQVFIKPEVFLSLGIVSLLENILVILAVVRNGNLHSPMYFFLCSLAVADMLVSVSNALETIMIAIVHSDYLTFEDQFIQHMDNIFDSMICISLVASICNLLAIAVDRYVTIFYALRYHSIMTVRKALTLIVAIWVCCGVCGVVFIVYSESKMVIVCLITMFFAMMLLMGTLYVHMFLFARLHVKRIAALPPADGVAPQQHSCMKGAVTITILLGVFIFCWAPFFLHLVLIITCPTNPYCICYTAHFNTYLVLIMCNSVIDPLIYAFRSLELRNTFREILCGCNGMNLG
T6 sequence (P41145 whole entry): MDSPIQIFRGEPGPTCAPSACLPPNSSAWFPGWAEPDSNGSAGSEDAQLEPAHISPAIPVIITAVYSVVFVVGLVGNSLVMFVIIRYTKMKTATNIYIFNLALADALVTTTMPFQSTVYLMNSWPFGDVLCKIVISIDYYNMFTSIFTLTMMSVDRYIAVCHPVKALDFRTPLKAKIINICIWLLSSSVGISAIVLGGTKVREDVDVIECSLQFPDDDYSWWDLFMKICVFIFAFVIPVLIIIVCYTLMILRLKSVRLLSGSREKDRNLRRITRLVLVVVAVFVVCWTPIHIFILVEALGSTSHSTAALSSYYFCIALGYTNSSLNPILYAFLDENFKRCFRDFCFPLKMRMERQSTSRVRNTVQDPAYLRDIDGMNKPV
T3 sequence (P35372 whole entry): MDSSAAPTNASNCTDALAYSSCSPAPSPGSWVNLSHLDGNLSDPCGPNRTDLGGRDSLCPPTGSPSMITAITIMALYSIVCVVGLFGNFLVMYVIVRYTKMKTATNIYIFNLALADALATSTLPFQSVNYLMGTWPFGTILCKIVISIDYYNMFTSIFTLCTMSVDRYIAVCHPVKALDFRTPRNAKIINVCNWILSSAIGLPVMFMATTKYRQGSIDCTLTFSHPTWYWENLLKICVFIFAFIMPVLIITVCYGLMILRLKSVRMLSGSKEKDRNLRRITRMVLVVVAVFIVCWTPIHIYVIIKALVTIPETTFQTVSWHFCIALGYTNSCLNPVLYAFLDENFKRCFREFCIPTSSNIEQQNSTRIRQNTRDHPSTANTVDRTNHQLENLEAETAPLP
T1 sequence (P32245 whole entry): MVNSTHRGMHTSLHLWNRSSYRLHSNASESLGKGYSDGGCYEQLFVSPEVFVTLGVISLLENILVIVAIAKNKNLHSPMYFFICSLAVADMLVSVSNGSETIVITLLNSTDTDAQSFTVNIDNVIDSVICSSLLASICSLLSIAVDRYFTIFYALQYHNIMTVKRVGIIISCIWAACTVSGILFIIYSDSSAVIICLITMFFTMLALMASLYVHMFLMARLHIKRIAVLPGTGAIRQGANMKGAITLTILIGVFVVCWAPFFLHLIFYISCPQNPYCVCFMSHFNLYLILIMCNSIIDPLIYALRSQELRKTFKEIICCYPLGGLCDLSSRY
T9 sequence (P33032 whole entry): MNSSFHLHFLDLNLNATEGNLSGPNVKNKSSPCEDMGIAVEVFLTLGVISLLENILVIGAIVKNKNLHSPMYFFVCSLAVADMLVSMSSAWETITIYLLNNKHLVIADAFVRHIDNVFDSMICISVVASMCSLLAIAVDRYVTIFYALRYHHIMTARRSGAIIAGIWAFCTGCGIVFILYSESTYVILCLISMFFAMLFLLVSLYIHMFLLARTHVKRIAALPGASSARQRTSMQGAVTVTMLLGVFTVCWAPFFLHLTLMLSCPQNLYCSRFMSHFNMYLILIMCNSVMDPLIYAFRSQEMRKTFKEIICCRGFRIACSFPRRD
T10 sequence (Q99705 whole entry): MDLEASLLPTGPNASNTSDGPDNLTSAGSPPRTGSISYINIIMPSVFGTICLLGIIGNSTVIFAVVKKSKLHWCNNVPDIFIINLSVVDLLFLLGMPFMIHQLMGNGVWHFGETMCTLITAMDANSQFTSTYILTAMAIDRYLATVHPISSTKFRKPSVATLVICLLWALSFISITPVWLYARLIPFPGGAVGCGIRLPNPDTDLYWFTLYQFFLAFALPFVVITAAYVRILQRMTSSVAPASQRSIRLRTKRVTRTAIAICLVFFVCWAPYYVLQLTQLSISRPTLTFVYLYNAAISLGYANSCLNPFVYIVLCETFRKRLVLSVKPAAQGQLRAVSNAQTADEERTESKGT
T8 sequence (P25103 whole entry): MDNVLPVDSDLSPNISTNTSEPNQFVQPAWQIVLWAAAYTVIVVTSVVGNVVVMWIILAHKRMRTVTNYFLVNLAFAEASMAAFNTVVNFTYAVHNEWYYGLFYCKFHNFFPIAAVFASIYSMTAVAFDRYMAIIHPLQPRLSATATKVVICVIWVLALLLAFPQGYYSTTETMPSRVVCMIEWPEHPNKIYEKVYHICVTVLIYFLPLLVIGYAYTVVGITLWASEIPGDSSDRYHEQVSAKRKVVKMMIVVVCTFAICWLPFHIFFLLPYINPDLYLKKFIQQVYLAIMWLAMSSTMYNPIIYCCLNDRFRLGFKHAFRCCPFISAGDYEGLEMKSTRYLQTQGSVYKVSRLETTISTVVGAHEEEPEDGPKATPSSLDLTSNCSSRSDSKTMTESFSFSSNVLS

SMILES: COC[C@H]1OC(OCc2ccc(-c3ccccc3)cc2)[C@H](NC(=O)CCCNC(=N)N)[C@@H](OCc2ccc(-c3ccccc3)cc2)[C@@H]1O (single isomer, unassigned) [compound 335]
- A4: inhibition of radioligand binding, human melanocortin (MC4) (Human Melanocortin (MC4)): + (“+” indicates greater than 50% inhibition at 10 μM)
- A10: inhibition of radioligand binding, human opioid (ORL1) (Human opioid (ORL1)): − (“−” indicates less than 50% inhibition at 10 μM)
- A7: inhibition of radioligand binding, human μ-opioid (MOP) (Human μ-opioid (MOP); 10 µM): + (“+” indicates greater than 50% inhibition at 10 μM)
- A1: inhibition of radioligand binding, human δ-opioid (DOP) (Human δ-opioid (DOP); 10 µM): + (“+” indicates greater than 50% inhibition at 10 μM)
- A3: inhibition of radioligand binding, human melanocortin (MC3) (Human Melanocortin (MC3); 10 µM): + (“+” indicates greater than 50% inhibition at 10 μM)
- A2: inhibition of radioligand binding, human κ-opioid (KOP) (Human κ-Opioid (KOP); 10 µM): + (“+” indicates greater than 50% inhibition at 10 μM)
- A11: inhibition of radioligand binding, mouse urotensin (mUR2) (Mouse urotensin (mUR2)): − (“−” indicates less than 50% inhibition at 10 μM)
- A8: inhibition of radioligand binding, human neurokinin (NK1) (Human neurokinin (NK1)): + (“+” indicates greater than 50% inhibition at 10 μM)
- A5: inhibition of radioligand binding, human melanocortin (MC5) (Human melanocortin (MC5)): + (“+” indicates greater than 50% inhibition at 10 μM)
- A6: inhibition of radioligand binding, human melanin-concentrating hormone (MCH1) ([1]; [125I]-S36057): + (“+” indicates greater than 50% inhibition at 10 μM)
- A9: inhibition of radioligand binding, human neuropeptide Y (NPY-Y1) [2]: − (“−” indicates less than 50% inhibition at 10 μM)

SMILES: COCC1OC(OCc2ccc(Cl)cc2)C(NC(=O)CCNC(=N)N)C(OCc2ccc(-c3ccccc3)cc2)C1O (stereo not shown) [compound 206]
- A4: inhibition of radioligand binding (Human Melanocortin (MC4); FlashPlate): + (“+” indicates greater than 50% inhibition at 10 μM)
- A10: inhibition of radioligand binding (Human opioid (ORL1); FlashPlate): − (“−” indicates less than 50% inhibition at 10 μM)
- A7: inhibition of radioligand binding (Human μ-opioid (MOP); FlashPlate): − (“−” indicates less than 50% inhibition at 10 μM)
- A1: inhibition of radioligand binding (Human δ-opioid (DOP); FlashPlate): − (“−” indicates less than 50% inhibition at 10 μM)
- A3: inhibition of radioligand binding (Human Melanocortin (MC3); FlashPlate): − (“−” indicates less than 50% inhibition at 10 μM)
- A2: inhibition of radioligand binding (Human κ-Opioid (KOP); filtration): − (“−” indicates less than 50% inhibition at 10 μM)
- A11: inhibition of radioligand binding (Mouse urotensin (mUR2); FlashPlate): − (“−” indicates less than 50% inhibition at 10 μM)
- A8: inhibition of radioligand binding (Human neurokinin (NK1); filtration): + (“+” indicates greater than 50% inhibition at 10 μM)
- A5: inhibition of radioligand binding (Human melanocortin (MC5); FlashPlate): + (“+” indicates greater than 50% inhibition at 10 μM)
- A6: inhibition of radioligand binding ([1]; [125I]-S36057, FlashPlate): + (“+” indicates greater than 50% inhibition at 10 μM)
- A9: inhibition of radioligand binding ([2]; FlashPlate): − (“−” indicates less than 50% inhibition at 10 μM)
